Values of other authors in patent US10654860B2, “Tricyclic rho kinase inhibitors” (BRISTOL-MYERS SQUIBB COMPANY, priority 2016, dated 2020).
Like-named read-outs stand apart in the source and are kept apart here.

Columns and labels:
[1] = tested on: spontaneously hypertensive rat, renal hypertensive rat and deoxycortisone acetate salt hypertensive rat models; conditions: cited from earlier work
neointimal formation = conditions: rats, balloon injury model; cited from earlier work
[2] = tested on: congestive heart failure in Dahl salt-sensitive rats; conditions: cited from earlier work
[3] = tested on: IL-1 beta-induced coronary stenosis; conditions: long term treatment, porcine model; cited from earlier work
rat stroke model = conditions: cited from earlier work

SMILES	blood pressure ([1]; control rats)	blood pressure ([1]; three rat models of hypertension)	neointimal formation (neointimal formation)	ventricular hypertrophy, fibrosis and function [2]	coronary constrictive remodeling [3]	coronary stenosis [3]	infarct size (rat stroke model)	neurologic deficit (rat stroke model)
C[C@@H](N)[C@H]1CC[C@H](C(=O)Nc2ccncc2)CC1 [Example Y-27632, Y-27632]	only a minor effect	significantly decrease	inhibited	improve	–	–	–	–
O=S(=O)(c1cccc2cnccc12)N1CCCNCC1 [fasudil]	–	–	–	–	promote a regression	progressively reduce	reduce	reduce
